Measurements from ChEMBL document CHEMBL1146607, “Synthesis and antifungal activity of 2,5-disubstituted-6-arylamino-4,7-benzimidazolediones” (2003).
In brackets after ≈: the same amount, converted by molar mass.

Experiments:
Assay type in all cases: functional
Aspergillus niger = assay: In vitro antifungal activity against Aspergillus niger KCTC 1231 was measured
Candida albicans = assay: In vitro antifungal activity against Candida albicans ATCC 10231 was measured
Pichia kudriavzevii = assay: In vitro antifungal activity against Candida krusei ATCC 749 was measured
Candida tropicalis = assay: In vitro antifungal activity against Candida tropicalis ATCC 28775 was measured

Row | SMILES | MIC (Aspergillus niger) | MIC (Candida albicans) | MIC (Pichia kudriavzevii) | MIC (Candida tropicalis)
1 | COc1ccc(NC2=C(Cl)C(=O)c3nc(-c4ccccn4)[nH]c3C2=O)cc1 | 25 µg/mL (≈ 65.7 µM) | 12.5 µg/mL (≈ 32.8 µM) | 12.5 µg/mL (≈ 32.8 µM) | 1.6 µg/mL (≈ 4.2 µM)
2 | O=C1C(Cl)=C(Nc2ccc(F)cc2)C(=O)c2[nH]c(-c3ccncc3)nc21 | 100 µg/mL (≈ 271 µM) | > 100 µg/mL | > 100 µg/mL | 6.3 µg/mL (≈ 17.1 µM)
3 | COc1ccc(NC2=C(Cl)C(=O)c3nc(-c4cccnc4)[nH]c3C2=O)cc1 | 100 µg/mL (≈ 263 µM) | > 100 µg/mL | > 100 µg/mL | 50 µg/mL (≈ 131 µM)
4 | O=C1C(Cl)=C(Nc2ccc(F)cc2)C(=O)c2[nH]c(-c3ccccn3)nc21 | 25 µg/mL (≈ 67.8 µM) | 12.5 µg/mL (≈ 33.9 µM) | 6.3 µg/mL (≈ 17.1 µM) | 3.2 µg/mL (≈ 8.68 µM)
5 | O=C1C(Cl)=C(Cl)C(=O)c2[nH]c(-c3ccccn3)nc21 | 100 µg/mL (≈ 340 µM) | > 100 µg/mL | > 100 µg/mL | 25 µg/mL (≈ 85 µM)
6 | O=C1C=C(Nc2ccc(Br)cc2)C(=O)c2[nH]c(-c3ccccn3)nc21 | 1.6 µg/mL (≈ 4.05 µM) | 50 µg/mL (≈ 127 µM) | 1.6 µg/mL (≈ 4.05 µM) | 0.8 µg/mL (≈ 2.02 µM)
7 | O=C1C=C(Nc2ccc(Cl)cc2)C(=O)c2[nH]c(-c3ccccn3)nc21 | 3.2 µg/mL (≈ 9.12 µM) | 50 µg/mL (≈ 143 µM) | 1.6 µg/mL (≈ 4.56 µM) | 0.8 µg/mL (≈ 2.28 µM)
8 | O=C1C=CC(=O)c2[nH]c(-c3ccccn3)nc21 | 100 µg/mL (≈ 444 µM) | > 100 µg/mL | > 100 µg/mL | 100 µg/mL (≈ 444 µM)
9 | O=C1C=C(Nc2ccc(I)cc2)C(=O)c2[nH]c(-c3ccccn3)nc21 | 100 µg/mL (≈ 226 µM) | 50 µg/mL (≈ 113 µM) | 1.6 µg/mL (≈ 3.62 µM) | 0.8 µg/mL (≈ 1.81 µM)
10 | Cc1ccc(NC2=C(Cl)C(=O)c3nc(-c4ccccn4)[nH]c3C2=O)cc1 | 25 µg/mL (≈ 68.5 µM) | 12.5 µg/mL (≈ 34.3 µM) | 3.2 µg/mL (≈ 8.77 µM) | 1.6 µg/mL (≈ 4.39 µM)
11 | COc1ccc(NC2=C(Cl)C(=O)c3nc(-c4ccncc4)[nH]c3C2=O)cc1 | 100 µg/mL (≈ 263 µM) | > 100 µg/mL | > 100 µg/mL | 25 µg/mL (≈ 65.7 µM)
12 | O=C1C(Cl)=C(Nc2ccc(F)cc2)C(=O)c2[nH]c(-c3cccnc3)nc21 | 100 µg/mL (≈ 271 µM) | > 100 µg/mL | > 100 µg/mL | 12.5 µg/mL (≈ 33.9 µM)
13 | CCOc1ccc(NC2=C(Cl)C(=O)c3[nH]c(-c4ccccn4)nc3C2=O)cc1 | 25 µg/mL (≈ 63.3 µM) | 12.5 µg/mL (≈ 31.7 µM) | 12.5 µg/mL (≈ 31.7 µM) | 3.2 µg/mL (≈ 8.11 µM)
14 | O=C1C(Cl)=C(Nc2ccc(Br)cc2)C(=O)c2[nH]c(-c3ccncc3)nc21 | 100 µg/mL (≈ 233 µM) | > 100 µg/mL | > 100 µg/mL | 12.5 µg/mL (≈ 29.1 µM)
15 | O=C1C(Cl)=C(Nc2ccc(Br)cc2)C(=O)c2[nH]c(-c3cccnc3)nc21 | 100 µg/mL (≈ 233 µM) | > 100 µg/mL | > 100 µg/mL | 50 µg/mL (≈ 116 µM)
16 | O=C1C(Cl)=C(Nc2ccc(Cl)cc2)C(=O)c2[nH]c(-c3cccnc3)nc21 | 100 µg/mL (≈ 260 µM) | > 100 µg/mL | > 100 µg/mL | 25 µg/mL (≈ 64.9 µM)
17 | O=C1C(Cl)=C(Nc2ccc(Br)cc2)C(=O)c2[nH]c(-c3ccccn3)nc21 | 6.3 µg/mL (≈ 14.7 µM) | 3.2 µg/mL (≈ 7.45 µM) | 6.3 µg/mL (≈ 14.7 µM) | 1.6 µg/mL (≈ 3.72 µM)
18 | Cc1ccc(NC2=CC(=O)c3[nH]c(-c4ccccn4)nc3C2=O)cc1 | 6.3 µg/mL (≈ 19.1 µM) | 3.2 µg/mL (≈ 9.69 µM) | 0.4 µg/mL (≈ 1.21 µM) | 0.8 µg/mL (≈ 2.42 µM)
19 | O=C1C(Cl)=C(Nc2ccc(Cl)cc2)C(=O)c2[nH]c(-c3ccccn3)nc21 | 6.3 µg/mL (≈ 16.4 µM) | 6.3 µg/mL (≈ 16.4 µM) | 6.3 µg/mL (≈ 16.4 µM) | 3.2 µg/mL (≈ 8.31 µM)
20 | COc1ccc(NC2=CC(=O)c3[nH]c(-c4ccccn4)nc3C2=O)cc1 | 50 µg/mL (≈ 144 µM) | 6.3 µg/mL (≈ 18.2 µM) | 1.6 µg/mL (≈ 4.62 µM) | 0.8 µg/mL (≈ 2.31 µM)
21 | O=C1C(Nc2ccc(F)cc2)=CC(=O)c2[nH]c(-c3ccccn3)nc21 | 100 µg/mL (≈ 299 µM) | 100 µg/mL (≈ 299 µM) | 50 µg/mL (≈ 150 µM) | 1.6 µg/mL (≈ 4.79 µM)
22 | CCOc1ccc(NC2=CC(=O)c3nc(-c4ccccn4)[nH]c3C2=O)cc1 | 50 µg/mL (≈ 139 µM) | 50 µg/mL (≈ 139 µM) | 1.6 µg/mL (≈ 4.44 µM) | 0.8 µg/mL (≈ 2.22 µM)
23 | O=C1C(Cl)=C(Nc2ccc(I)cc2)C(=O)c2[nH]c(-c3ccccn3)nc21 | > 100 µg/mL | 50 µg/mL (≈ 105 µM) | 100 µg/mL (≈ 210 µM) | 3.2 µg/mL (≈ 6.71 µM)
24 | O=C1C(Cl)=C(Nc2ccc(Cl)cc2)C(=O)c2[nH]c(-c3ccncc3)nc21 | 100 µg/mL (≈ 260 µM) | > 100 µg/mL | > 100 µg/mL | 3.2 µg/mL (≈ 8.31 µM)
25 | Nc1nc(=O)[nH]cc1F [FLUCYTOSINE] | 6.3 µg/mL (≈ 48.8 µM) | 3.2 µg/mL (≈ 24.8 µM) | 6.3 µg/mL (≈ 48.8 µM) | 6.3 µg/mL (≈ 48.8 µM)
